Broadly, the Kd is a measure of binding affinity in units of concentration. A high value points to weaker binding.

Here are results for one substance from patent publication US12492403B2, “Aptamers and the use thereof in the treatment of cancer” (FUNDACIÓN PARA LA INVESTIGACIÓN BIOMÉDICA DEL HOSPITAL …, priority 2018, dated 2025).

One series addresses MNK1aΔ77 (Homo sapiens, UniProt Q9BUB5). Put plainly: ELONA binding of biotin-labeled aptamer. The note with it: apMNKQ2-Bio at 20 nM, GST-MNK1aΔ77 0.2 μg/well. As for the experimental part:
(§1) FIGS. 5A-5C. Characterization of the interaction of aptamer apMNKQ2 with MNK1 by means of ELONA. (A) ELONAs in which GST-MNKs previously adsorbed in 96-well plates at 0.2 μg/well (3 pmol/well) with apMNKQ2-Bio at 20 nM were incubated (FIG. 5A). The bars represent the mean±SEM of at least 3 independent experiments (*p<0.05, **p<0.01, and ***p<0.001 with respect to the blank and c p<0.05, b p<0.01, and a p<0.001 MNK1b with respect to MNK1a). ELONAs in which concentrations of 0 to 500 nM of apMNKQ2 were incubated (FIGS. 5A and 5C).
(§2) To determine the binding of the aptamers to MNK1a or MNK1b, 200 ng of protein/well diluted in a coating solution (KPL, USA) in a final volume of 100 μL/well were added to a Maxisorp Nunc 96-well ELISA plate (ThermoFisher Scientific, USA). The plate was incubated overnight at 4° C. under stirring. Aptamers were then added at the corresponding concentration according to the assay, in a final volume of 100 μL/well of BSA-free aptamer buffer for 1 hour at 37° C. under stirring. All the aptamers used were labeled with biotin and had been previously denatured at 90° C. for 10 minutes and then kept at 4° C. for 10 minutes in the BSA-free aptamer buffer. To detect the binding of the aptamer to the protein, 100 μL/well of streptavidin-peroxidase (GE Healthcare, United Kingdom) diluted 1/1000 in the aptamer buffer at 37° C. for 1 hour under stirring were added. To develop the plate, 100 μL/well of ABTS solution (Roche, Switzerland) were added, and it was incubated in darkness at room temperature, with measurements being taken every 10 minutes at a wavelength of 405 nm in an Infinite F200 spectrophotometer (TECAN, Switzerland).

The next series deals with MNK1b (Homo sapiens, UniProt Q9BUB5). In words: ELONA binding of biotin-labeled aptamer. As for the experimental part: as §1, §2
MNK1b, sequence (Q9BUB5 1-347 isoform Q9BUB5-3): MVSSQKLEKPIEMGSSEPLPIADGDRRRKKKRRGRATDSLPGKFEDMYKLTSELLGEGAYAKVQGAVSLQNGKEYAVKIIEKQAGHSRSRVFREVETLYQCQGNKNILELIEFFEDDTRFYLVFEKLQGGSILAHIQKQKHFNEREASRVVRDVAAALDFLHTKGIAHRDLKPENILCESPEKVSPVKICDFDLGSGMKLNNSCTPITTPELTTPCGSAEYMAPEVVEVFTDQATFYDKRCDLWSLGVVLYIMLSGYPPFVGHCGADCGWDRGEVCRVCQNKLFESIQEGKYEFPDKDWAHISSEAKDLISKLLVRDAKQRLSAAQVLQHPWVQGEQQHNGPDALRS
A further series concerns MCF7 cells. Put plainly: Cell viability by trypan blue exclusion. The series is classed as cell-based, human. Particulars: MCF7, 150 nM, 24 hours after transfection, vs control aptamer AT. The method, then:
(§3) FIG. 9. Cell viability analysis by trypan blue exclusion. MCF7, MDA-MB-231, and MDA-MB-468 cells from different experiments were collected 24 hours after transfection, diluted 1:10 in trypan blue, and counted in a TC20 counter (BioRad, USA). The boxes represent the mean±the maximum and minimum of 12-14 independent experiments (**p<0.01, and ***p<0.001 with respect to the control aptamer AT). Trypan blue exclusion. Cells (live and dead) were collected in their corresponding medium, trypan blue (Sigma-Aldrich, USA) was added, and the cells were counted using the TC20 counter (BioRad, USA). Living cells are those which exclude the dye. The results were expressed as the number of living cells/mL. The cell lines were then transfected with the previously established concentrations and the number of living cells was determined 24 hours after transfection with […]2 or with the control aptamer AT by means of trypan blue exclusion.

The subject of another series is MDA-MB-231 cells. Put plainly: Cell viability by trypan blue exclusion. Format: cell-based, human. Particulars: MDA-MB-231, 400 nM, 24 hours after transfection, vs control aptamer AT. As for the experimental part:
as §3

In the next series the test system is MDA-MB-468 cells. Put plainly: Cell viability by trypan blue exclusion. Format: cell-based, human. The note with it: MDA-MB-468, 50 nM, 24 hours after transfection, vs control aptamer AT. As for the experimental part:
as §3

A further series concerns caspase 3. Put plainly: Caspase 3 activity by western blot of PARP and α-spectrin fragments. The series is classed as cell-based, human. The note with it: MCF7, MDA-MB-231, and MDA-MB-468 cells, 24 hours post-transfection. The text has this:
FIGS. 11A & 11B. Effect of apMNKQ2 on caspase 3 activity by means of PARP and α-spectrin substrates in breast cell lines. Immunodetection with specific antibodies by means of 12% SDS-PAGE of “cleaved” PARP (FIG. 11A) and α-spectrin (FIG. 11B) for detecting the proteolytic activity of caspase 3 after the transfection of lines MCF7, MDA-MB-231, and MDA-MB-468 with apMNKQ2 and the control aptamer AT. The activity of this protease gives rise to characteristic proteolysis patterns with specific fragments of 89 kDa for PARP and 150 and 120 kDa for α-spectrin.
Caspase 3 activity was assessed by means of western blot with two endogenous substrates of this protein: • the enzyme poly ADP-ribose (PARP), fractionated in late apoptotic stages, using a specific antibody that only recognizes the PARP fragment processed by caspase 3. • the protein α-spectrin, with an antibody capable of recognizing the complete form and the fragments obtained after being broken down by caspase 3. Colony Formation Assays
Similarly, to verify that apMNKQ2 is capable of increasing apoptosis in the cell lines, the activity of caspase 3, a protease activated in apoptosis, was assessed. The western blot study was performed on two endogenous substrates of caspase 3: the enzyme poly ADP-ribose (PARP), fractionated in late apoptotic stages, and the protein α-spectrin. […]
In general terms: A western blot detects proteins with antibodies after separation by electrophoresis.

MNK1aΔ77, sequence (Q9BUB5 1-347 isoform Q9BUB5-2 limits assumed): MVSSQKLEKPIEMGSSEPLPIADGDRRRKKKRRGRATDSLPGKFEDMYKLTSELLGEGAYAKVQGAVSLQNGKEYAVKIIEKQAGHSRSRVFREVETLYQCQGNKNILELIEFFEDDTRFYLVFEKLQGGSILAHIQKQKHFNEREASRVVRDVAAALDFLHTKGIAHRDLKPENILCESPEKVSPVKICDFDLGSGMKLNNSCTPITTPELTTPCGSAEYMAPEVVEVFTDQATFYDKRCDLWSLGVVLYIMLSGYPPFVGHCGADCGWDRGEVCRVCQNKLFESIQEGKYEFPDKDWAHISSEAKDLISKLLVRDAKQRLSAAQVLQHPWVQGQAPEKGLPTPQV

“5′TGGGGTGGGCGGGCGGGGGTGGGGGTGGT-3′ (DNA, backbone and methylation of C not given here; further chemistry not fully specified) [apMNKQ2]”: the “binding (ELONA)” value with MNK1aΔ77 was “not significant”; in the series with MNK1b (apMNKQ2-Bio at 20 nM, GST-MNK1b 0.2 μg/well) it was “binds significantly”. The Kd with MNK1b (ELONA, biotin-labeled aptamer 0 to 500 nM, GST-MNK1b) is 15.5 ± 2.36 nM. In addition, the “affinity for MNK1b relative to MNK1a” value with MNK1b (from ELONA KD values) was “four-fold higher”. In addition, the entries for the “total number of living cells (trypan blue exclusion)” value in the series with MCF7 cells, in the series with MDA-MB-231 cells and in the series with MDA-MB-468 cells were “significant drop”, “very slight drop” and “significant drop”, respectively. In the series with caspase 3, the “caspase 3 activity (proteolysis fragments of PARP and α-spectrin)” value is on record as “apoptotic effect”.
